Tests used:
ZR-75-1 cells [1] = assay: Estrogenic activity: stimulation of proliferation of ZR-75-1 cells; format: cell-based, human
Protocol: […] The manner in which the stimulation is determined is described in “Other Tests; C-Estrogenic/Antiestrogenic activity” Lower numbers are desirable. ND means that a determination was not done.
(§1) Estrogenic/antiestrogenic activity of some preferred compounds has been measured using the […] human breast cancer cell line as described in more detail below.
(§2) All media and medium supplments were purchased from Sigma. Cells were subcultured weekly by treatment with a pancreatic solution containing EDTA (0.2 g/L). The cell cultures used for the experiments herein describied were between passages 89 and 94.
(§3) Cells in their logarithmic growth phase were harvested, briefly centrifuged, and resuspended in RPMI 1640. Cells were then plated in triplicate in LIMBRO 24-well plastic culture plates (2 cm^2/well). Since plating density influences the effect of hormones on ZR-75-1 cell growth, cells were plated at a density of 1×10^4 cells/well. […] Control cultures received the ethanol vehicle only. Cells were then allowed to grow at 37° C. for 10 days with medium changes (of identical composition) every 2 days.
(§4) After E2 and/or antiestrogen treatment, cells were harvested by addition of 0.5 ml of a pancreatin solution (Sigma) for 5-10 min at 37° C. before addition of 0.5 mnl of RPMI 1640 containing 5% dextran coated […] bovine serum in order to block enzymatic action. Cell number (0.10 ml aliquot) was determined by measurement of DNA content as previously described (Simard et al., Endocrinology 126: 3223-3231,1990).

ZR-75-1 cells [2] = assay: Antiestrogenic activity: inhibition of E2-induced proliferation of ZR-75-1 cells; format: cell-based, human; parameters: ZR-75-1 Activity, E2 / ZR-75-1 Activity E2 E^−6: unit not given here; conditions: for ZR-75-1 Activity E2 E^−6: with E2, E^−6
Protocol: The manner in which the inhibition is determined is described in “Other Tests; C-Estrogenic/Antiestrogenic Activity”. Lower numbers are desirable. ND means that a determination was not done.
as §1, §2, §3, §4

[3] = molecular target: T1, human type 2 17β-hydroxysteroid dehydrogenase (Homo sapiens, UniProt P37059); assay: Enzymatic assay for type 2 17β-HSD; format: biochemical; conditions: for inhibition: read-out: Inhibition Type 2 17β-HSD Activity [% Inh. at 3 · 10^−8M]
T1 construct: expressed in transfected cells; host or cells: 293 cells, transient transfection; microsomal fraction (100 000×g pellet)
T1 sequence (P37059 1-387): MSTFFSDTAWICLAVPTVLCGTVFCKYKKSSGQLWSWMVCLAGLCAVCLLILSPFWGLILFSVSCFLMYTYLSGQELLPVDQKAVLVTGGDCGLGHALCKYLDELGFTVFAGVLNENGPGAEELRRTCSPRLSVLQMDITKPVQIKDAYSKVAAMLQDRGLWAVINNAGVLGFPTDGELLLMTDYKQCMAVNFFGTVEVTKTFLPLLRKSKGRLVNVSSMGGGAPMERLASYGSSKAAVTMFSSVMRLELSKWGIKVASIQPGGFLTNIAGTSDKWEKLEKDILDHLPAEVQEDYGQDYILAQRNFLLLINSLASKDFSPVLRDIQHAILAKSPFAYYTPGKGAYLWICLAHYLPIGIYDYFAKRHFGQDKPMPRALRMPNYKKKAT
Protocol: The manner in which IC50 was determined is described in “Efficacy of Preferred Inhibitors: VI. Enzymatic assay for types 1, 2, and 3 17β-HSD and types 1 and 3 3α-HSD”. […] numbers of IC50 are desirable. Blank means that a determination was not done. […]
Enzyme sources. 293 cells transiently transfected with expression vectors encoding types 1, 2 and 3 17β-HSD (Luu-The et al., J. Steroid Biochem. Molec. Biol., 55: 581-587, 1995), types 1 and 2 5α-reductase (Luu-The et al., J. Invest. Dermatol., 102: 221-226, 1994) and types 1 and 3 3α-HSD (Dufort et al. Biochem. Biophys. Res. Commun. 228: 474-479, 1996), using the calcium phosphate procedure (Kingston et al., In: Current Protocols in Molecular Biology. Edited by E. M. Ausbel, R. Brent, R. E. Kingston, D. D. Moore, J. G. Seidman, J. A. Smith, K. Struhl. John Wiley & Sons, New York, pp. 9.1.1-9.1.9, 1991; Luu-The et al., J. Invest. Dermatol., 102: 221-226, 1994). For assays using cell subfractions, cells were sonicated in 50 mM sodium phosphate buffer (pH 7.4), containing 20% glycerol and 1 mM EDTA and centrifuged at 10 000×g for 30 min before centrifugation for 100 000×g for 1 h to separate the mitochondrial and microsomal fractions, respectively. The cytosol fractions (100 000×g supernatant) was used to determine type 1 activity while the microsomal fraction (pellet at 100 000×g) was used for measurement of types 2 and 3 17β-HSD activities.
Incubation. The enzymatic reaction was carried out at 37° C. in 1 ml of 50 mM sodium phosphate buffer, pH 7.4, containing 20% glycerol, 1 mM EDTA, and 2 mM cofactors (NADPH or AND^+) for 1 h in the presence of 0.1 μM ^14C-labeled substrate: estrone and 4-dione for types 1 and […] 17β-HSD, respectively, testosterone for type 2 17β-HSD as well as types 1 and 2 5α-reductases, DHT for types 1 and 3 3α-HSD activities, and the indicated concentration of inhibitor.
Extraction of metabolites, migration on TLC and quantification were as described above for the assay of type 5 17β-HSD.

[4] = Table 4′, E2-induced proliferation, 3E^−8
[5] = Table 4′, bracketed values, 3 · 10^−8M

SMILES | ZR-75-1 Activity, Basal E^−6 (ZR-75-1 cells [1]; Table 4′) | ZR-75-1 Activity, Basal E^−8 (ZR-75-1 cells [1]; Table 4′) [%] | ZR-75-1 Activity, E2 3E^−8 (ZR-75-1 cells [2]; [4]) [%] | inhibition [3, 5] [%] | also measured
CC12C=CC(=O)C=C1C=CC1C2CCC2(C)C(=O)C3(CCCCC3)CC12 (centres unmarked) [CS-204] |  |  |  |  | ZR-75-1 Activity, Basal E^−6 (ZR-75-1 cells [1]): 0; ZR-75-1 Activity, Basal E^−8 (ZR-75-1 cells [1]): 0; ZR-75-1 Activity, E2 3E^−8 (ZR-75-1 cells [2]; with E2, 3E^−8): 0; ZR-75-1 Activity E2 E^−6 (ZR-75-1 cells [2]): −25
CC1(C)CCC2(CCC3C4CCc5ccccc5C4CCC32C)OC1=O (centres unmarked) [CS-224] | 128% | 16 | 13 |  | 
CCC(=O)O[C@]1(C(C)=O)CCC2C3C=C(C)C4=CC(=O)C[C@H](C)[C@]4(C)C3CC[C@@]21C (some centres unmarked) [CS-243] |  |  |  |  | ZR-75-1 Activity, Basal (ZR-75-1 cells [1]; E^−6, in %): 0; ZR-75-1 Activity, Basal (ZR-75-1 cells [1]; E^−8, in %): 0; ZR-75-1 Activity, E2 (ZR-75-1 cells [2]; E2): −57; ZR-75-1 Activity, E2 (ZR-75-1 cells [2]; E2, E^−8): −60
C[C@]12CCC3c4ccc(O)cc4CCC3C1CC[C@@]21CCCC(=O)O1 (stereo partly drawn) [EM-919, 1,3,5(10)-estratrien-3-ol-17(R)-spiro-2′(6′-oxo)tetrahydropyran] | −20% | 0 | −18 | 86 | 
COC(=O)CCCC(=O)O[C@]1(C(C)=O)CC[C@H]2[C@@H]3C=C(C)C4=CC(=O)CC[C@]4(C)[C@H]3CC[C@@]21C [EM-1007, 6-Methyl-4,6-pregnadien-17α-ol-3,20-dione 4′-Carbomethoxybutyrate] |  |  |  |  | ZR-75-1 Activity, Basal (ZR-75-1 cells [1]; E^−6, in %): 0; ZR-75-1 Activity, Basal (ZR-75-1 cells [1]; E^−8, in %): −8; ZR-75-1 Activity, E2 (ZR-75-1 cells [2]; E2): −52; ZR-75-1 Activity, E2 (ZR-75-1 cells [2]; E2, E^−8): −41
CC1CCC2(CCC3C4CCc5ccccc5C4CCC32C)OC1=O (centres unmarked) [EM-1025] | 201% | 20 | 0 | 64 | 
CCC[C@@H]1CC2C3C=CC4=CC(=O)CC[C@]4(C)C3CC[C@]2(C)C1=O (some centres unmarked) [EM-1097] |  |  |  |  | inhibition at 3 µM ([3]; 3 · 10^−6 M, value in square brackets, read-out: Inhibition Type 2 17B-HSD Activity [% Inh. at 3 · 10^−6 M]): 53%; ZR-75-1 Activity, Basal E^−6 (ZR-75-1 cells [1]): 10; ZR-75-1 Activity, Basal E^−8 (ZR-75-1 cells [1]): −8; ZR-75-1 Activity, E2 3E^−8 (ZR-75-1 cells [2]; with E2, 3E^−8): 0; ZR-75-1 Activity E2 E^−6 (ZR-75-1 cells [2]): 0
C[C@]12CCC3c4cc([N+](=O)[O-])c(O)cc4CCC3C1CC[C@@]21CCCC(=O)O1 (stereo partly drawn) [EM-1124, 2-Nitro-1,3,5(10)-estraetriene-3-ol-17(R)-spiro-2′-(6′-oxo)tetrahydropyran] | 12% | 0 | 0 |  | 
CC1(C)CCC2(CCC3C4CCc5cc(O)c([N+](=O)[O-])cc5C4CCC32C)OC1=O (centres unmarked) [EM-1125-CS] | 34% | 10 | 0 |  | 
CC1CCC2(CCC3C4CCc5cc(O)c([N+](=O)[O-])cc5C4CCC32C)OC1=O [EM-1126, 2-Nitro-1,3,5(10)-estratrien-3-ol-17(R)-spiro-2′-(5′-methyl-6′-oxo)tetrahydropyran] | −89% | 0 | 0 |  | Inhibition Type 2 17β-HSD Activity [% Inh. at 3 · 10^−8M] [3, 5]: [59] %
CC1CCC2(CCC3C4CCc5cc(O)c([N+](=O)[O-])cc5C4CCC32C)OC1=O [EM-1131, 2-Nitro-1,3,5(10)-estratrien-3-ol-17(R)-spiro-2′-(5′-methyl-6′-oxo)tetrahydropyran] | 15% | 7 | 0 | 70 | 
CC(=O)[C@@]1(OC(=O)CCCCF)CCC2C3C=C(C)C4=CC(=O)CC[C@]4(C)C3CC[C@@]21C (some centres unmarked) [EM-1195-CS] |  |  |  |  | Inhibition Type 2 17β-HSD Activity [% Inh.] ([3]; at 3.10^-8M): [40] %; ZR-75-1 Activity, Basal (ZR-75-1 cells [1]; E^−6, in %): 18; ZR-75-1 Activity, Basal (ZR-75-1 cells [1]; E^−8, in %): −11; ZR-75-1 Activity, E2 (ZR-75-1 cells [2]; E2): −40; ZR-75-1 Activity, E2 (ZR-75-1 cells [2]; E2, E^−8): −38
CC(C)C[C@@H]1CC2C3C=CC4=CC(=O)CC[C@]4(C)C3CC[C@]2(C)C1=O (some centres unmarked) [EM-1273-CS] |  |  |  |  | ZR-75-1 Activity, Basal E^−6 (ZR-75-1 cells [1]): 0; ZR-75-1 Activity, Basal E^−8 (ZR-75-1 cells [1]): 0; ZR-75-1 Activity, E2 3E^−8 (ZR-75-1 cells [2]; with E2, 3E^−8): 0; ZR-75-1 Activity E2 E^−6 (ZR-75-1 cells [2]): −30
CCS(=O)(=O)Oc1ccc2c(c1)CCC1C2CCC2(C)C1CCC21CCC(C)(C)C(=O)O1 (centres unmarked) [EM-1364-CS] | +36% | 0 | −12 | 73 | 
CC1(C)CCC2(CCC3C4CCc5cc(OS(C)(=O)=O)ccc5C4CCC32C)OC1=O (centres unmarked) [EM-1365-CS] | 0% | −17 | −17 |  | IC50 ([3]; Table 4′, read-out: Inhibition Type 2 17β-HSD Activity IC50): > 10 µM
CC1(C)CCC2(CCC3C4CCc5cc(O)c(C#N)cc5C4CCC32C)OC1=O (centres unmarked) [EM-01645] |  |  |  | 38 | 
CC1(C)CCC2(CCC3C4CCc5cc(O)c(C(N)=O)cc5C4CCC32C)OC1=O (centres unmarked) [EM-01660] |  |  |  | 59 | 
CN(C)C(=O)c1cc2c(cc1O)CCC1C2CCC2(C)C1CCC21CCC(C)(C)C(=O)O1 (centres unmarked) [EM-01661-B] |  |  |  | 55 | 
COC(=O)c1cc2c(cc1O)CCC1C2CCC2(C)C1CCC21CCC(C)(C)C(=O)O1 (centres unmarked) [EM-01662] |  |  |  | 70 | 
CC12CCC3c4ccc(O)cc4CCC3C1CCC21CC=CC(=O)O1 [PB-132-140, 3-hydroxy-1,3,5(10)-estratrien-17(R)-spiro-2′-(4′,5′-dihydro-6′-oxo)pyran] | 71% | 15 | 0 |  | 
CC(=O)O[C@]1(C(C)=O)CCC2C3C=C(C)C4=CC(=O)CC[C@]4(C)C3CC[C@@]21C (some centres unmarked) [megestrol acetate, reference compound] |  |  |  |  | ZR-75-1 Activity, E2 (ZR-75-1 cells [2]; E2): −81; ZR-75-1 Activity, E2 (ZR-75-1 cells [2]; E2, E^−8): −70
